Results published in patent publication US10202362B2, “Inhibitors of leukotriene A4 hydrolase” (Celtaxsys, Inc., priority 2016, dated 2019).

How the values were obtained:
[1] = test system: LTB4 production in human whole blood; test: Whole blood assay (LTB4 release upon calcium ionophore, ELISA), human blood; format: cell-based; details: production of LTB4 in whole blood
Procedure: Compounds of the invention were tested for their ability as inhibitors of LTA4 hydrolase in a whole blood assay using human, mouse, rat or dog whole blood in a manner similar to that described in Penning, T. D. et al., J. Med. Chem. (2000), 43(4): 721-735. In this assay, compounds were tested for their ability to inhibit LTB4 release upon stimulation with calcium ionophore. The LTB4 levels in supernatants were measured by ELISA.

[2] = target: LTA4 hydrolase peptidase activity (Homo sapiens (Human), UniProt P09960); test: Peptidase assay (hydrolysis of L-alanine-p-nitroanilide); format: biochemical; details: L-alanine-p-nitroanilide substrate
Sequence of LTA4 hydrolase peptidase activity (P09960 whole entry): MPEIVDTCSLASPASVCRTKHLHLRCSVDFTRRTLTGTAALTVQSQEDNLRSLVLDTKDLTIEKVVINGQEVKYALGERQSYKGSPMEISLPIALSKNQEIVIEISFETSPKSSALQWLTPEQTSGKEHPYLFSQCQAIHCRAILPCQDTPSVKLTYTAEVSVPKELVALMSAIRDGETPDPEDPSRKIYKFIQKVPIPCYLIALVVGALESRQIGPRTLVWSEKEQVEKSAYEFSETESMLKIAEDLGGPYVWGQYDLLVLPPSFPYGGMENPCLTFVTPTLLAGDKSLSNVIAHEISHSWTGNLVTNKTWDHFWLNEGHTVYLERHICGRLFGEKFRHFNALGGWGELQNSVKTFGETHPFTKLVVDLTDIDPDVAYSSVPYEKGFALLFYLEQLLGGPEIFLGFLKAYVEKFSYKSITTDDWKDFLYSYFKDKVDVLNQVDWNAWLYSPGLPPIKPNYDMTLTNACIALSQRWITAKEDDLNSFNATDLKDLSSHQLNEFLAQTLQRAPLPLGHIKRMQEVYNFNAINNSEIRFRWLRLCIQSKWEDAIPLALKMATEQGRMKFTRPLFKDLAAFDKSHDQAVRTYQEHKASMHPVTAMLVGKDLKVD
Procedure: Inhibition of peptidase activity was measured for the compounds of the invention by using methods similar to those described in Kull, F. et al., The Journal of Biological Chemistry 1999, 274 (49): 34683-34690.
In brief, the enzyme (29 nM) was incubated with L-alanine-p-nitroanilide (1 mM) in 50 mM HEPES (pH 7.5), 100 mM KCL, 1% DMSO in the absence or presence of a compound of the invention for 1 hour at ambient temperature. Reaction was terminated by addition of acetic acid (1%). Formation of colored nitro-aniline was measured by the increase in absorbance at 405 nm in a Victor 2 plate reader (Wallac). Spontaneous hydrolysis of the substrate was corrected for by subtracting the absorbance of control incubations without enzyme.

[3] = target: recombinant human LTA4 hydrolase (Homo sapiens (Human), UniProt P09960); test: LTA4 hydrolase homogeneous time resolved fluorescence (HTRF) assay; format: biochemical; details: inhibition of hydrolysis of LTA4 to LTB4
Sequence of recombinant human LTA4 hydrolase (P09960 whole entry): as above
Procedure: Compounds of the invention were tested in the LTA4 hydrolase homogeneous time resolved fluorescence (HTRF) assay to determine their ability to inhibit the hydrolysis of LTA4 to LTB4. The assay analyzes the amount of LTB4 produced.
LTA4 HTRF assay is a two-step assay involving enzymatic conversion of LTA4 to LTB4, and subsequent quantification of LTB4, product with HTRF assay.
The enzymatic conversion of LTA4 to LTB4 was performed in 384-well plates at ambient temperature in a reaction mixture containing 50 mM HEPES (pH 7.5), 0.5% BSA (fatty acid free), 18 nM recombinant human LTA4 hydrolase, 150 nM LTA4, 1% DMSO in the absence or presence of a compound of the invention. […]
LTB4 formed was quantified with the HTRF assay in which free LTB4 competes with LTB4-XL665 conjugate (acceptor) for anti-LTB4 monoclonal antibody labeled with Europium cryptate (donor), thereby inhibiting the fluorescence energy transfer.
The LTB4 HTRF 384-well assay was carried out by incubating LTB4 samples or standards with LTB4-XL665 conjugate (7.5 ng/well) and anti-LTB4 monoclonal antibody-Europium cryptate conjugate (0.5 ng/well) in 50 mM phosphate, 0.4 M KF and 0.1% casein, buffer (pH 7.0) for two hours at ambient temperature. Plates were read in a RubyStar plate reader (BmG Labtechnologies Inc., NC) simultaneously at 620 nm and 665 nm to obtain signal ratios of 665 nm/620 nm. […]

| SMILES | IC50 [1] | IC50 [2] | IC50 [3] |
| --- | --- | --- | --- |
| O=C(O)C1CCN(C(=O)CN2CCC(Nc3ccc(Oc4ccc(-c5ncco5)cc4)cc3)CC2)CC1 [Example 1, 1-(2-(4-((4-(4-(oxazol-2-yl)phenoxy)phenyl)amino)piperidin-1-yl)acetyl)piperidine-4-carboxylic acid] | 62 nM | 7.1 nM | 2.1 nM |
| O=C(O)c1ccc(CN2CCCC(CNc3ccc(Oc4ccc(Cl)cc4)cc3)C2)cc1 (stereo not drawn) [Example 3, 4-((3-(((4-(4-chlorophenoxy)phenyl)amino)methyl)piperidin-1-yl)methyl)benzoic acid] | 100 nM | 22 nM | 1.8 nM |
